Holding throughout (type): cell-based
Assay [1] relates to Escherichia coli (10536 strain). Description: Example 1: 15 second contact suspension kill assay, mean bacterial survival and MBC. The settings on record: component alone; lowest concentration giving complete kill after 15 seconds; upper boundary to the MBC.
In assay [2] the test system is Escherichia coli (E. coli ATCC #10536). Description: Example 3: automated assessment of efficacy in surfactant base (2.85% sodium cocoyl glycinate + 1.85% sodium lauroamphoacetate, pH 10). The settings on record: for bactericidal efficacy in combination with thymol (in words): in combination with thymol at concentrations lower than their MBC in the same surfactant formulation, complete kill in all 4 or 3 replicates; for MBC (minimum biocidal concentration): component alone in 2.85% sodium cocoyl glycinate + 1.85% sodium lauroamphoacetate solution at pH 10. The protocol: In these examples, the efficacy of combinations of thymol and menthadiene alcohols were tested in a surfactant cleansing formulation comprising 2.85% sodium cocoyl glycinate and 1.85% sodium lauroamphoacetate. This corresponds to a 50% in use dilution with water of a typical neat formulation containing 5.7% cocoyl glycinate and 3.7% % sodium lauroamphoacetate during hand washing. Solutions were prepared such that the concentrations of the surfactant components and test actives were 1.1 times the final desired concentration in order to allow for dilution with the bacterial inoculum in the test. The solutions were manually adjusted to pH 10.0 by dropwise addition of sodium hydroxide solution, as measured with a pH meter at ambient temperature. Solutions of the thymol and/or menthadiene alcohols were prepared at a maximum of 24 hours before testing. The same thymol and menthadiene alcohols were used as in Example 1.
The efficacy of the combinations of the present invention was determined against the same bacterium as in Example 1, Escherichia coli (E. coli ATCC #10536), at a concentration of approximately 1×10^8 bacteria per mL.
Tests were conducted using standard microtiter plate assays using an automated liquid handling system. 270 μl of the surfactant test solution was pipetted into each well of the microtitre plate (Nunc F Gamma Irradiated 96F untreated microtitre plates of clear polystyrene) and 30 μl of the bacterial suspension was then added. After exactly 15 seconds of bacterial exposure, a 30 μl volume of bacterial cells was withdrawn and transferred to 270 μl of D/E quench solution. After 5 minutes in the D/E quench, the optical density (OD) was measured for each plate in turn at two specific wavelengths (450 nm and 590 nm). These provide a dual check of antimicrobial activity, as the OD450 reading is specific for the yellow colour of D/E quench when bacterial growth is observed, whereas OD590 is specific for the initial purple colour of the D/E quench which is retained if no bacterial growth is observed. […] Delta OD values were calculated by subtracting […] at time=16 hours. […] To identify antibacterially efficacious systems (those preventing appreciable bacterial growth after incubation), the following threshold changes in OD readings have been adopted: if (1). OD450 increases by less than 0.2 absorbance unit (AU) on incubation and (2). […] The number of replicate wells showing either bacterial growth or no growth is also readily assessed by eye by following the colour change. […]
In each case, binary mixtures were assessed in the weight to weight ratio of thymol to menthadiene alcohol of 1:2.5.

Assay [3] has as its system Escherichia coli (E. coli - ATCC #10536). Description: Example 2: high resolution MBC synergy assay in phosphate buffer containing 5% dipropylene glycol. The settings on record: for ΣFBC: calculated from Ca/MBCA + Cb/MBCB; for MBC of component alone (MBCA, MBCB) / Cb, end-point (MBC) of second component carveol in the mixture / Ca, end-point (MBC) of first component thymol in the mixture / Cb, end-point (MBC) of second component perillyl alcohol in the mixture: complete kill in 15 seconds; for MBC of component alone (MBCA, MBCB): phosphate buffer with 5% DPG, about 1×10^8 bacteria per mL; for Cb, end-point (MBC) of second component carveol in the mixture / Cb, end-point (MBC) of second component perillyl alcohol in the mixture: mixture with thymol at Ca. The protocol: In this Example, a wide range of combinations of chemicals was tested by conducting high resolution MBC assays of carveol or perillyl alcohol in the presence of various concentrations of thymol. […] The MBC plate was inoculated one column at a time with the test microorganism. An aliquot of the inoculated well was transferred at 15 seconds to a plate containing a neutralizing agent (D/E Neutralizing Broth), mixed and held for 5 minutes before being transferred to a growth plate containing trypticase soy broth (TSB). The TSB plate was incubated at 37° C. and read for the presence/absence of growth at 24 hours. […] This microorganism is representative of natural contaminants in many consumer and industrial applications. […] The tables show the specific combinations of two components; results against the microorganism tested; the end-point activity in weight % measured by the MBC for the first component alone (thymol, MBCA), for the second component alone ([…] alcohol, MBCB), for the first component in the mixture (Ca) and for the second component in the mixture (Cb); the calculated ΣFBC value; and the range of synergistic ratios for each combination tested (first component to second component or A/B) against the particular microorganism.

Here are results for 3 compounds from US9271492B2, “Antimicrobial composition” (Rohm and Haas Company, priority 2011, dated 2016).

Take `C=C(C)C1CC=C(C)C(O)C1` (stereo not shown) [carveol, 2-methyl-5-(prop-1-en-2-yl)cyclohex-2-enol]: the “MBC (minimum biocidal concentration)” value in assay [1] is 0.3 % w/v. Further, the “bactericidal efficacy in combination with thymol (in words)” value in assay [2] is 15 second bactericidal efficacy. The ΣFBC in assay [3] is on record as 1.00. Further, the “MBC of component alone (MBCA, MBCB)” value in assay [3] amounted to 0.7 weight %. Moreover, the “Cb, end-point (MBC) of second component carveol in the mixture” value in assay [3] (thymol to carveol ratio 1 to 0.05) is on record as 0.025 weight %; in assay [3] (thymol to carveol ratio 1 to 0.08) it was 0.05 weight %; in assay [3] (thymol to carveol ratio 1 to 0.25) it was 0.075 weight %; in assay [3] (thymol to carveol ratio 1 to 0.5) it was 0.1 weight %; in assay [3] (thymol to carveol ratio 1 to 4.38) it was 0.35 weight %.

For the compound `Cc1ccc(C(C)C)c(O)c1` [thymol, 2-isopropyl-5-methylphenol], the “MBC (minimum biocidal concentration)” value in assay [2] came to 0.2 % w/v. The ΣFBC in assay [3] is 1.00. The “Ca, end-point (MBC) of first component thymol in the mixture” value in assay [3] (mixture with carveol at Cb, thymol to carveol ratio 1 to 0.05) was 0.5 weight %; in assay [3] (mixture with carveol at Cb, thymol to carveol ratio 1 to 0.08), 0.6 weight %; in assay [3] (mixture with carveol at Cb, thymol to carveol ratio 1 to 0.19) it was 0.4 weight %; in assay [3] (mixture with carveol at Cb, thymol to carveol ratio 1 to 0.25), 0.3 weight %; in assay [3] (mixture with carveol at Cb, thymol to carveol ratio 1 to 0.5), 0.2 weight %; in assay [3] (mixture with carveol at Cb, thymol to carveol ratio 1 to 3.5), 0.1 weight %. Moreover, the “Ca, end-point (MBC) of first component thymol in the mixture” value is listed as 0.08 weight % in assay [3] (mixture with carveol at Cb, thymol to carveol ratio 1 to 4.38); 0.3 weight % in assay [3] (mixture with perillyl alcohol at Cb, thymol to perillyl alcohol ratio 1 to 0.17); 0.2 weight % in assay [3] (mixture with perillyl alcohol at Cb, thymol to perillyl alcohol ratio 1 to 0.5); 0.08 weight % in assay [3] (mixture with perillyl alcohol at Cb, thymol to perillyl alcohol ratio 1 to 2.5).

For `C=C(C)[C@@H]1CC=C(CO)CC1` [perillyl alcohol, (S)-(4-(prop-1-en-2-yl)cyclohex-1-en-1-yl)methanol], the “MBC (minimum biocidal concentration)” value amounted to 0.1 % w/v in assay [1] and 0.5 % w/v in assay [2]. For the same compound, the “bactericidal efficacy in combination with thymol (in words)” value in assay [2] is listed as 15 second bactericidal efficacy. In addition, in assay [3], the ΣFBC is 1.00. For the same compound, the “MBC of component alone (MBCA, MBCB)” value in assay [3] was 0.3 weight %. Moreover, the “Cb, end-point (MBC) of second component perillyl alcohol in the mixture” value in assay [3] (thymol to perillyl alcohol ratio 1 to 0.13) came out at 0.025 weight %; in assay [3] (thymol to perillyl alcohol ratio 1 to 0.17), 0.05 weight %; in assay [3] (thymol to perillyl alcohol ratio 1 to 0.38), 0.075 weight %; in assay [3] (thymol to perillyl alcohol ratio 1 to 0.5) it was 0.1 weight %; in assay [3] (thymol to perillyl alcohol ratio 1 to 2.5), 0.2 weight %.
